The results in this text go back to patent US7338949B2, “Mycobacterial inhibitors” (Janssen Pharmaceutica N.V., priority 2004, dated 2008).

One data set deals with M. Smegmatis ATCC607. Kind of data set: In-vitro method for testing compounds for anti-bacterial activity against strain M. Smegmatis ATCC607. The data set is classed as cell-based. The conditions noted are these: M. smegmatis growth inhibition, 48 hours at 37° C., Alamar Blue fluorescence; for IC50: Mycolicibacterium smegmatis, ATCC607, 48 h. As to the method: D.2. In-vitro method for testing compounds for anti-bacterial activity against strain M. Smegmatis ATCC607.
Flat-bottom, sterile 96-well plastic microtiter plates were filled with 180 μl of sterile deionized water, supplemented with 0.25% BSA. Subsequently, stock solutions (7.8× final test concentration) of compounds were added in 45 μl volumes to a series of duplicate wells in column 2 so as to allow evaluation of their effects on bacterial growth. Serial five-fold dilutions (45 μl in 180 μl) were made directly in the microtiter plates from column 2 to 11 using a customised robot system (Zymark Corp., Hopkinton, Mass.). Pipette tips were changed after every 3 dilutions to minimize pipetting errors with high hydrophobic compounds. Untreated control samples with (column 1) and without (column 12) inoculum were included in each microtiter plate. Approximately 250 CFU per well of bacteria inoculum, in a volume of 100 μl in 2.8× Mueller-Hinton broth medium, was added to the rows A to H, except column 12. The same volume of broth medium without inoculum was added to column 12 in row A to H. The cultures were incubated at 37° C. for 48 hours in a humidified 5% CO2 atmosphere (incubator with open air valve and continuous ventilation). At the end of incubation, two days after inoculation, the bacterial growth was quantitated fluorometrically. Therefore Alamar Blue (10×) was added to all wells in a volume of 20 μl and plates were incubated for another 2 hours at […]
The fluorescence was read in a computer-controlled fluorometer (Cytofluor, Biosearch) at an excitation wavelength of 530 nm and an emission wavelength of 590 nm (gain 30). The % growth inhibition achieved by the compounds was calculated according to standard methods. The pIC50 was defined as the 50% inhibitory concentration for bacterial growth.

In the case of `COc1nc2ccc(-c3ccco3)cc2cc1[C@@H](c1ccccc1)[C@@]1(c2cccc3ccccc23)CCN(C)CO1` (single isomer, unassigned) [Compound 16], the IC50 (usually the midpoint of a concentration-inhibition curve) in the data set with M. Smegmatis ATCC607 was 316 nM. This counts as sub-micromolar.
With `COc1nc2ccc(Cl)cc2cc1[C@@H](c1ccccc1)[C@@]1(c2cccc3ccccc23)CC[N+](C)(C)CO1.[I-]` (single isomer, unassigned), the melting point – broadly, the temperature, or range, at which the solid turns liquid – is 195 °C.
On to `CCN1CC[C@](c2ccc(F)cc2F)(C(c2ccccc2)c2cc3cc(Br)ccc3nc2OC)OC1=O` (single isomer, unassigned) [Compound 5], for which the melting point came to 192 °C. This molecule also showed a half-maximal inhibitory concentration (IC50) in the data set with M. Smegmatis ATCC607 of 20000 nM.
Molecule `COc1nc2ccc(-c3ccccc3)cc2cc1[C@@H](c1ccccc1)[C@@]1(c2cccc3ccccc23)CCN(C)CO1` (single isomer, unassigned) [Compound 13] showed an IC50 with M. Smegmatis ATCC607 of 316 nM.
As for `COc1nc2ccc(Br)cc2cc1[C@@H](c1ccc(Cl)cc1)[C@]1(c2cccc3ccccc23)CCN(C)CO1` (single isomer, unassigned) [Compound 2], the melting point was found to be 201 °C. The molecule also showed an IC50 with M. Smegmatis ATCC607 of 63.1 nM.
Consider `COc1nc2ccc(Cl)cc2cc1[C@@H](c1ccccc1)[C@@]1(c2cccc3ccccc23)CCN(C)CO1` (single isomer, unassigned) [Compound 7], for which the pIC50 (in general, the IC50 on a negative log10 scale, so that one unit is a factor of ten) in the data set with M. Smegmatis ATCC607 is 7.9.
With `CCN1CC[C@@](c2ccc(F)cc2F)(C(c2ccccc2)c2cc3cc(Br)ccc3nc2OC)OC1=O` (single isomer, unassigned) [Compound 19], the melting point came to 216 °C.
As for `COc1nc2ccc(Br)cc2cc1[C@@H](c1ccccc1)[C@]1(c2cccc3ccccc23)CCN(C)CO1` (single isomer, unassigned) [Compound 1], the melting point is 112 °C. In the data set on M. Smegmatis ATCC607, this molecule showed an IC50 of 3.16 nM.
Molecule `COc1nc2ccc(Cl)cc2cc1[C@@H](c1ccccc1)[C@@]1(c2cccc3ccccc23)CCN(C)CO1` (single isomer, unassigned) [Compound 3] registered a melting point of 189 °C. This molecule also returned a pIC50 in the data set with M. Smegmatis ATCC607 of 5.1.
In the data set with M. Smegmatis ATCC607, `COc1ccc2nc(OC)c([C@@H](c3ccccc3)[C@]3(c4cccc5ccccc45)CCN(C)CO3)cc2c1` (single isomer, unassigned) [Compound 8] had an IC50 of 63.1 nM.
Still for that read-out and setting: for `COc1ccc2nc(OC)c([C@@H](c3ccccc3)[C@@]3(c4cccc5ccccc45)CCN(C)CO3)cc2c1` (single isomer, unassigned) [Compound 14] the value was 316 nM.
Molecule `COc1nc2ccc(Br)cc2cc1[C@@H](c1ccccc1)[C@@]1(c2cccc3ccccc23)CCN(C)CO1` (single isomer, unassigned) [Compound 11] showed a melting point of 108 °C. This molecule had an IC50 with M. Smegmatis ATCC607 of 316 nM.
As for `COc1nc2ccc(-c3ccccc3)cc2cc1[C@@H](c1ccccc1)[C@]1(c2cccc3ccccc23)CCN(C)CO1` (single isomer, unassigned) [Compound 6], in the data set with M. Smegmatis ATCC607, the IC50 was 25.1 nM.
In turn, `COc1nc2ccc(Cl)cc2cc1[C@@H](c1ccccc1)[C@]1(c2cccc3ccccc23)CC[N+](C)(C)CO1.[I-]` (single isomer, unassigned) had a melting point of 211 °C.
Regarding `COc1nc2ccc(Br)cc2cc1[C@@H](c1ccc(Cl)cc1)[C@@]1(c2cccc3ccccc23)CCN(C)CO1` (single isomer, unassigned) [Compound 17], half-maximal inhibition in the data set with M. Smegmatis ATCC607 (IC50) required 316 nM. In other words, the sub-micromolar range.
As to `COc1nc2ccc(Br)cc2cc1[C@H](c1ccccc1)C1(c2ccccc2)CCN(C)CO1` (single isomer, unassigned) [Compound 12], the melting point was 168 °C. For the same molecule, half-maximal inhibition with M. Smegmatis ATCC607 (IC50) was put at 158 nM.
